Reference: US20210395256A1, “TYROSINE KINASE INHIBITORS, COMPOSITIONS AND METHODS THERE OF” (Betta Pharmaceuticals Co., Ltd., priority 2018, published 2021)

molecular target: TrkA kinase (Homo sapiens, UniProt P04629); assay: TrkA kinase assay (mobility shift assay); assay type: biochemical; details: class symbols; read-out: Trk A Kinase IC50
Method: Example 201 TrkA Kinase Assay
Mobility shift assay was used to determine the inhibitory activity of compounds against TrkA kinase. Assay procedures are as follows:
1× Kinase base buffer (50 mM HEPES, pH 7.5; 0.0015% Brij-35)
Stop buffer (100 mM HEPES, pH 7.5; 0.015% Brij-35; 0.2% Coating Reagent #3; 50 mM EDTA)
1) Dilute the compound to 50× of the final desired highest inhibitor concentration in reaction by 100% DMSO. Transfer 100 μl of this compound dilution to a well in a 96-well plate.
2) For all compounds, transfer the compound in tubes to one well on 96-well storage plate and serially dilute the compound by transferring 30 μl to 60 μl of 100% DMSO in the next well and so forth for a total of 10 concentrations.
3) Add 100 μl of 100% DMSO to two empty wells for no compound control and no enzyme control in the same 96-well plate. Mark the plate as source plate.
4) Prepare intermediate plate
Transfer 10 μl of compound from source plate to a new 96-well plate as the intermediate plate
Add 90 µl of 1× kinase buffer to each well of the intermediate plate.
Mix the compounds in intermediate plate for 10 min on shaker.
1) Transfer 5 μl of each well from the 96-well intermediate plate to a 384-well plate in duplicates. For example, A1 of the 96-well plate is transferred to A1 and A2 of the 384-well plate. A2 of the 96-well plate is transferred to A3 and A4 of the 384-well plate, and so on.
1) Prepare 2.5× enzyme solution
Add kinase in 1× kinase base buffer.
2) Prepare 2.5× peptide solution Add FAM-labeled peptide and ATP in the 1× kinase base buffer.
3) Assay plate already contains 5 μl of compound in 10% DMSO.
4) Transfer 2.5× enzyme solution to the assay plate
Add 10 μl of 2.5× enzyme solution to each well of the 384-well assay plate.
5) Incubate at room temperature for 10 min.
6) Transfer 2.5× peptide solution to the assay plate
Add 10 μl of 2.5× peptide solution to each well of the 384-well assay plate.
Kinase reaction conditions are shown as Table 11:
7) Kinase reaction and stop
Incubate at 28° C. for specified period of time.
Add 25 μl of stop buffer to stop reaction.
1) Copy conversion data from Caliper program.
2) Convert conversion values to inhibition values.
Percent inhibition=(max-conversion)/(max-min)*100.
“max” stands for DMSO control; “min” stands for low control.
3) Fit the data in XLFit excel add-in version 5.4.0.8 to obtain IC50 values.
Equation used is: Y=Bottom+(Top-Bottom)/(1+(IC50/X)^HillSlope)

Chain of TrkA kinase (P04629 33-796): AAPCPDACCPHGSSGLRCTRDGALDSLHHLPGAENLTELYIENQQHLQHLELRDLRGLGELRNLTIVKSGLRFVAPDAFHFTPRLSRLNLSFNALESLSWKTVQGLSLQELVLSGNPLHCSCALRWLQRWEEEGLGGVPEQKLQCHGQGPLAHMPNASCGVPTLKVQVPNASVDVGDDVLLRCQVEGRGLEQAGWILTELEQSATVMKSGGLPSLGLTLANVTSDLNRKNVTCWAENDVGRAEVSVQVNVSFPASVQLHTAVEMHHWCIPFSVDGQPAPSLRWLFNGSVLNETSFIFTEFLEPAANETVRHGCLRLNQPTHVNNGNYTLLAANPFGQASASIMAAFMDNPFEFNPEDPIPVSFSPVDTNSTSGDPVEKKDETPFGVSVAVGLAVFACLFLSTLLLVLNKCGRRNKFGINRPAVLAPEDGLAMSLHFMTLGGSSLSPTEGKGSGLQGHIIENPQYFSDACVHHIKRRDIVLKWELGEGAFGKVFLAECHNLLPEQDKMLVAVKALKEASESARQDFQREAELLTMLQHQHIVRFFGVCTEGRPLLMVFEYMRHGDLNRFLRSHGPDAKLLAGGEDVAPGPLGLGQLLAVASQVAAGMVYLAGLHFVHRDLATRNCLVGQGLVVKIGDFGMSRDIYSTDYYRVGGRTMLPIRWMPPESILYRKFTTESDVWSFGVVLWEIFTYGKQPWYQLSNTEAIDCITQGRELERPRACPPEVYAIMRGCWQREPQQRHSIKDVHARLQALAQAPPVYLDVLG

| SMILES | IC50 [nM] |
| --- | --- |
| Fc1ccc(F)c([C@H]2CCCN2c2ccn3ncc(-c4nc5cnccc5s4)c3n2)c1 [Compound 75, (R)-2-(5-(2-(2,5-difluorophenyl)pyrrolidin-1-yl)pyrazolo[1,5-a]pyrimidin-3-yl)thiazolo[4,5-c]pyridine] | ≤ 10 |
| Fc1ccc(F)c([C@H]2CCCN2c2ccn3ncc(-c4nc5cc6c(cc5[nH]4)OCCOCCOCCO6)c3n2)c1 [Compound 82, (R)-2-(5-(2-(2,5-difluorophenyl)pyrrolidin-1-yl)pyrazolo[1,5-a]pyrimidin-3-yl)-6,7,9,10,12,13-hexahydro-1H-[1,4,7,10]tetraoxacyclododecino[2′,3′:4,5]benzo[1,2-d]imidazole] | 10 to 50 |
| Cn1c(-c2cnn3ccc(N4CCC[C@@H]4c4cc(F)ccc4F)nc23)nc2cc3c(cc21)OCCO3 [Compound 83, (R)-2-(5-(2-(2,5-difluorophenyl)pyrrolidin-1-yl)pyrazolo[1,5-a]pyrimidin-3-yl)-1-methyl-6,7-dihydro-1H-[1,4]dioxino[2′,3′:4,5]benzo[1,2-d]imidazole] | > 50 |

same assay, conditions: numeric values; read-out: Trk A Kinase IC50

| SMILES | IC50 [nM] |
| --- | --- |
| CC(O)c1cc2nc(-c3cnn4ccc(N5CCC[C@@H]5c5cc(F)ccc5F)nc34)[nH]c2cn1 (stereo partly drawn) [Compound 70, 1-(2-(5-((R)-2-(2,5-difluorophenyl)pyrrolidin-1-yl)pyrazolo[1,5-a]pyrimidin-3-yl)-3H-imidazo[4,5-c]pyridin-6-yl)ethan-1-ol] | 0.5 |
| Fc1ccc(F)c([C@H]2CCCN2c2ccn3ncc(-c4nc5cc(C(F)(F)F)ncc5[nH]4)c3n2)c1 [Compound 72, (R)-2-(5-(2-(2,5-difluorophenyl)pyrrolidin-1-yl)pyrazolo[1,5-a]pyrimidin-3-yl)-6-(trifluoromethyl)-3H-imidazo[4,5-c]pyridine] | 1.4 |
| Fc1ccc(F)c([C@H]2CCCN2c2ccn3ncc(-c4nc5cnccc5o4)c3n2)c1 [Compound 73, (R)-2-(5-(2-(2,5-difluorophenyl)pyrrolidin-1-yl)pyrazolo[1,5-a]pyrimidin-3-yl)oxazolo[4,5-c]pyridine] | 0.59 |
| Fc1ccc(F)c([C@H]2CCCN2c2ccn3ncc(-c4nc5ccc(F)cc5[nH]4)c3n2)c1 [Compound 74, (R)-5-(2-(2,5-difluorophenyl)pyrrolidin-1-yl)-3-(6-fluoro-1H-benzo[d]imidazol-2-yl)pyrazolo[1,5-a]pyrimidine] | 0.96 |
| COc1ccc2nc(-c3cnn4ccc(N5CCC[C@@H]5c5cc(F)ccc5F)nc34)[nH]c2c1 [Compound 77, (R)-5-(2-(2,5-difluorophenyl)pyrrolidin-1-yl)-3-(6-methoxy-1H-benzo[d]imidazol-2-yl)pyrazolo[1,5-a]pyrimidine] | 0.7 |
| COc1cc2nc(-c3cnn4ccc(N5CCC[C@@H]5c5cc(F)ccc5F)nc34)[nH]c2cc1OC [Compound 78, (R)-5-(2-(2,5-difluorophenyl)pyrrolidin-1-yl)-3-(5,6-dimethoxy-1H-benzo[d]imidazol-2-yl)pyrazolo[1,5-a]pyrimidine] | 0.73 |
| Fc1ccc(F)c([C@H]2CCCN2c2ccn3ncc(-c4nc5ccc(OC(F)F)cc5[nH]4)c3n2)c1 [Compound 81, (R)-3-(6-(difluoromethoxy)-1H-benzo[d]imidazol-2-yl)-5-(2-(2,5-difluorophenyl)pyrrolidin-1-yl)pyrazolo[1,5-a]pyrimidine] | 2.18 |
| COc1ccc2nc(-c3cnn4ccc(N5CCC[C@@H]5c5cc(F)ccc5F)nc34)[nH]c2n1 [Compound 84, (R)-2-(5-(2-(2,5-difluorophenyl)pyrrolidin-1-yl)pyrazolo[1,5-a]pyrimidin-3-yl)-5-methoxy-3H-imidazo[4,5-b]pyridine] | 0.18 |
| COc1cc2[nH]c(-c3cnn4ccc(N5CCC[C@@H]5c5cc(F)ccc5F)nc34)nc2cn1 [Compound 85, (R)-2-(5-(2-(2,5-difluorophenyl)pyrrolidin-1-yl)pyrazolo[1,5-a]pyrimidin-3-yl)-6-methoxy-1H-imidazo[4,5-c]pyridine] | 0.31 |
